Laboratory results as given in patent US8193252B1, “Mesoprogestins (progesterone receptor modulators) for the treatment and prevention of benign hormone dependent gynecological disorders” (Bayer Pharma AG, priority 1999, dated 2012).

What was measured:
[1] = target: T1, GR (Homo sapiens, UniProt P04150); assay: Relative binding activity (RBA) at GR, dexamethasone = 100%; conditions: by Kaufmann
T1 sequence (P04150 1-777): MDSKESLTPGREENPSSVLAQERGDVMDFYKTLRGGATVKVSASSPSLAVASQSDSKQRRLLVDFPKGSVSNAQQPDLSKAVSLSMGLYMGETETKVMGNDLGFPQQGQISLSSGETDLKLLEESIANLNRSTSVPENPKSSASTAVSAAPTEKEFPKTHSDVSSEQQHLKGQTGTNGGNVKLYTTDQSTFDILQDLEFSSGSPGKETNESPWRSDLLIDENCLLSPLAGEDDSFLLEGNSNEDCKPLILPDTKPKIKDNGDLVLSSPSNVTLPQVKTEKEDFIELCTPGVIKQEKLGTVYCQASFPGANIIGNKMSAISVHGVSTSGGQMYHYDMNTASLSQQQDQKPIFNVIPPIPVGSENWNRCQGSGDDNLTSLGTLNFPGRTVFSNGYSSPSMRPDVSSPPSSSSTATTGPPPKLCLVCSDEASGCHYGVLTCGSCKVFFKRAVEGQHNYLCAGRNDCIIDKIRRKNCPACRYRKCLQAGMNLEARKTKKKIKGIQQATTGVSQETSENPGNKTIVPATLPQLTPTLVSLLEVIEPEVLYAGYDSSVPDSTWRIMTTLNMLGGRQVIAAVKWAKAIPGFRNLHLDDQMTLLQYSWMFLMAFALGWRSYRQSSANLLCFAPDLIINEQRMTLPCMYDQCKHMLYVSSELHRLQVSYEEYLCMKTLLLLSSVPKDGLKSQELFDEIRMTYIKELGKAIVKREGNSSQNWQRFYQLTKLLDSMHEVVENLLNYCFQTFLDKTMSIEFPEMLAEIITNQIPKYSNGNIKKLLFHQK

[2] = target: T2, progesterone receptor (PR) (Oryctolagus cuniculus, UniProt P06186); assay: McPhail test, PR agonistic (progestagenic) activity in estradiol-primed juvenile rabbits; format: in vivo, rabbit; conditions: for maximum progestagenic effect relative to progesterone: dose range 0.003-100 mg/rabbit s.c.
T2 construct: effects of PR-modulators in the uterus of estrogen primed immature rabbits (McPhail test); from tissue; host or cells: uterus (endometrium) of estradiol-primed juvenile rabbits, in vivo
T2 sequence (P06186 1-930): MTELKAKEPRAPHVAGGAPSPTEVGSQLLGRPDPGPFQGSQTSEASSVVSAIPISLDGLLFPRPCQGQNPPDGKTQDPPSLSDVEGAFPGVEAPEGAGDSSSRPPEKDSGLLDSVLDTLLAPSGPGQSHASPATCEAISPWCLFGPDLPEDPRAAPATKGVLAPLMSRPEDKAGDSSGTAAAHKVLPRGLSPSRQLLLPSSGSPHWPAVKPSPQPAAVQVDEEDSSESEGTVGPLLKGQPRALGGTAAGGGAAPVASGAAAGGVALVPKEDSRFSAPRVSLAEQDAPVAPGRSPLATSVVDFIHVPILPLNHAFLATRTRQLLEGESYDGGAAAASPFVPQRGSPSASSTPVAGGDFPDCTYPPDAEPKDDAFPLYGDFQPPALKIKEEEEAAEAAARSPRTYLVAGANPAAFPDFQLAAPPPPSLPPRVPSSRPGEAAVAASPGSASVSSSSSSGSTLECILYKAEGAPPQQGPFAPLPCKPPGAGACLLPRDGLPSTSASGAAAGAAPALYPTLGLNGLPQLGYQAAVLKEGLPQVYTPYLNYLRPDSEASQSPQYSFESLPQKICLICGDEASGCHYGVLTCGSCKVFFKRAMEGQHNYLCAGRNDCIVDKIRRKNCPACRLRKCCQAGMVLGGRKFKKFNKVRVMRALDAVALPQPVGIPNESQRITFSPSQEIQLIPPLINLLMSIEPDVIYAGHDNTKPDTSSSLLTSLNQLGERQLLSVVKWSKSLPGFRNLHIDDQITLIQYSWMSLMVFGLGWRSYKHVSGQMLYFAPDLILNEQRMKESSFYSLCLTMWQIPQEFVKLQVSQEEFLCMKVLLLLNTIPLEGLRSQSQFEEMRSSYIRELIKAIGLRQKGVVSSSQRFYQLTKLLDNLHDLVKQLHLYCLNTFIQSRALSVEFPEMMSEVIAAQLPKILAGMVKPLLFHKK
Experimental: In the classical bioassay, the McPhail test, assessing progestagenic and antiprogestagenic effects in rabbits (Selye H., Textbook of Endocrinology, 1947, pp. 345-346), progesterone produces a maximum McPhail score of 4 (by definition).
The PR antagonistic and agonistic properties of mesoprogestins were assessed in estrogen-primed rabbits in the McPhail test according to Selye (Textbook of Endocrinology, 1947, pp. 345-346).

[3] = tested on: endometriosis; assay: Treatment of endometriosis in women; format: in vivo, human; conditions: women with endometriosis, 3-6 months, 5-50 mg
[4] = tested on: endometriosis; assay: Sequential treatment of endometriosis with an LHRH agonist and J867; format: in vivo, human
Experimental: Women with endometriosis are treated for 2-3 months with an LHRH agonist such as Lupron. After the cessation of LHRH-agonist therapy women are treated for the next 3-6 months with J 867 in order to avoid osteoprorosis induced by prolonged treatment with LHRH agonist. During treatment with 5-50 mg J 867 the therapeutic effects of the LHRH-agonist are maintained.

[5] = tested on: uterine fibroids; assay: Treatment of uterine fibroids (Example 5); format: in vivo, human; conditions: 3-6 months, 5-50 mg
[6] = as described in DE 43 32 283 / DE 43 32 284; cited from earlier work
[7] = as described in DE 43 32 283 / DE 43 32 284; cited from earlier work; remark: listed apart in the source
[8] = tested on: cyclic guinea pigs; conditions: cited from earlier work
[9] = 4 days s.c. treatment, absence of progesterone

RBA (%) GR [1] [%] | dose of maximum effect [2, 9] | maximum effect, McPhail score [2, 9] [McPhail score] | shape of dose response in McPhail test ([2]; absence of progesterone) | estrogen deficiency ([4]; women with endometriosis) | SMILES | maximum progestagenic effect relative to progesterone [2] | pelvic pain during treatment [3] | therapeutic effects of the LHRH-agonist during following treatment ([4]; 5-50 mg for 3-6 months after 2-3 months LHRH agonist) | pelvic pain during treatment [5] | antiprogestagenic activity [6] | antiglucocorticoid activity compared to RU 486 [7] | uterine weights [8]
154 | 0.3-1 mg/rabbit | 1.5 | biphasic response | – | CCNC(=O)O/N=C/c1ccc([C@H]2C[C@@]3(C)[C@@H](CC[C@]3(COC)OC)[C@@H]3CCC4=CC(=O)CCC4=C32)cc1 [J956, 4-[17β-Methoxy-17α-(methoxymethyl)-3-oxoestra-4,9-dien-11β-yl]benzaldehyd-(1E)-[O-(ethylamino)carbonyl]oxim] | Neither mesoprogestin tested (J1042, J867, J956) reached the maximum effect of progesterone | – | – | – | – | – | –
78 | – | – | – | does not produce estrogen deficiency | COC[C@]1(OC)CC[C@H]2[C@@H]3CCC4=CC(=O)CCC4=C3[C@@H](c3ccc(/C=N/O)cc3)C[C@@]21C [J867, 4-[17β-Methoxy-17α-(methoxymethyl)-3-oxoestra-4,9-dien-11β-yl]benzaldehyd-(1E)-oxim] | Neither mesoprogestin tested (J1042, J867, J956) reached the maximum effect of progesterone | reduction of pelvic pain was observed | maintained | reduction of pelvic pain was observed | strong | markedly reduced | reduced uterine weights
42 | – | – | – | – | CCSC(=O)O/N=C/c1ccc([C@H]2C[C@@]3(C)[C@@H](CC[C@]3(COC)OC)[C@@H]3CCC4=CC(=O)CCC4=C32)cc1 [J1042, 4-[17β-Methoxy-17α-(methoxymethyl)-3-oxoestra-4,9-dien-11β-yl]benzaldehyd-(1E)-[O-(ethylthio)carbonyl]oxim] | Neither mesoprogestin tested (J1042, J867, J956) reached the maximum effect of progesterone | – | – | – | – | – | –
